The values below come from patent publication US9777005B2 (Takeda Pharmaceutical Company Limited, priority 2012, dated 2017).

This assay deals with T1, human M1 receptor (hCHRM1) (Homo sapiens, UniProt P11229).
T1 construct: expressed in transfected cells; host or cells: CHO-K1
T1 sequence (P11229 1-460): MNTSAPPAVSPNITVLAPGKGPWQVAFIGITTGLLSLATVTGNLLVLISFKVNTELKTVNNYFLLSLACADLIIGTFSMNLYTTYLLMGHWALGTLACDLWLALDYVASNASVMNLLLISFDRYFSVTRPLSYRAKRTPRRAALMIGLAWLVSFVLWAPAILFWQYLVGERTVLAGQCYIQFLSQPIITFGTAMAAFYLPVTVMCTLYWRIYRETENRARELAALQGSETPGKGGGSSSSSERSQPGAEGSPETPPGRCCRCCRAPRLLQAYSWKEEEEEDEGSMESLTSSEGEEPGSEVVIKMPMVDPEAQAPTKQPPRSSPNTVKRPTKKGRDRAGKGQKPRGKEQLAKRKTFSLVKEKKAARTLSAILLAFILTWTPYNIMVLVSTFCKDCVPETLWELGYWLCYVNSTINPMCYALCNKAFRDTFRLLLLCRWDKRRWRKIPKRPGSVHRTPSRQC
In words: Measurement of M1 receptor positive allosteric modulator (M1PAM) activity, calcium fluorescence (FLIPRtetra) in CHO-K1 cells in the presence of acetylcholine at EC20. It counts as cell-based. The settings on record: in the presence of acetylcholine at EC20 (final 0.6 nM), CHO-K1 cells expressing hCHRM1; for EC50: inflection point of M1PAM activity, read-out: IP value; for activity (%) at 10 μM: test compound 10 μM. Summed up: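 CHO-K1 cells expressing human M1 were loaded with Fluo-4 AM, and compound was added with acetylcholine at EC20 (final 0.6 nM). Calcium fluorescence was read on FLIPRtetra for 1 min. Activity was normalized to 1 μM acetylcholine (100%) and DMSO (0%), and the curve inflection point was reported as IP.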

On to `CCc1ccc(Oc2nccc3c2C(=O)N(Cc2ccc(C(N)=O)c(F)c2)C3)c(F)c1` [Example 445, 4-((4-(4-ethyl-2-fluorophenoxy)-3-oxo-1,3-dihydro-2H-pyrrolo[3,4-c]pyridin-2-yl)methyl)-2-fluorobenzamide], for which the EC50 came out at 28 nM and the “activity (%) at 10 μM” value is reported as 100%.

In the case of `NC(=O)c1ccc(CN2Cc3ccnc(Oc4ccc(C5CC5)cc4F)c3C2=O)cc1F` [Example 446, 4-((4-(4-cyclopropyl-2-fluorophenoxy)-3-oxo-1,3-dihydro-2H-pyrrolo[3,4-c]pyridin-2-yl)methyl)-2-fluorobenzamide], the EC50 is 26 nM and the “activity (%) at 10 μM” value is on record as 107%.

Regarding `CNC(=O)c1ccc(CN2Cc3ccnc(Oc4ccc(C5CC5)cc4F)c3C2=O)cc1` [Example 447, 4-((4-(4-cyclopropyl-2-fluorophenoxy)-3-oxo-1,3-dihydro-2H-pyrrolo[3,4-c]pyridin-2-yl)methyl)-N-methylbenzamide], the EC50 amounted to 5.2 nM and the “activity (%) at 10 μM” value stood at 93%.

Turning to `NC(=O)c1ccc(CN2Cc3ccnc(Oc4ccc(C5CC5)cc4F)c3C2=O)cc1` [Example 448, 4-((4-(4-cyclopropyl-2-fluorophenoxy)-3-oxo-1,3-dihydro-2H-pyrrolo[3,4-c]pyridin-2-yl)methyl)benzamide], the EC50 stood at 6.1 nM and the “activity (%) at 10 μM” value stood at 102%.

In the case of `CCc1ccc(Oc2nccc3c2C(=O)N(Cc2ccc(C(N)=O)cc2)C3)c(F)c1` [Example 449, 4-((4-(4-ethyl-2-fluorophenoxy)-3-oxo-1,3-dihydro-2H-pyrrolo[3,4-c]pyridin-2-yl)methyl)benzamide], the EC50 came to 9.3 nM and the “activity (%) at 10 μM” value worked out at 99%.

Consider `CCCc1ccc(Oc2nccc3c2C(=O)N(Cc2ccc(C(N)=O)cc2)C3)c(F)c1` [Example 450, 4-((4-(2-fluoro-4-propylphenoxy)-3-oxo-1,3-dihydro-2H-pyrrolo[3,4-c]pyridin-2-yl)methyl)benzamide], for which the EC50 amounted to 10 nM and the “activity (%) at 10 μM” value is 102%.

On to `CCCc1ccc(Oc2nccc3c2C(=O)N(Cc2ccc(C(=O)NC)cc2)C3)c(F)c1` [Example 451, 4-((4-(2-fluoro-4-propylphenoxy)-3-oxo-1,3-dihydro-2H-pyrrolo[3,4-c]pyridin-2-yl)methyl)-N-methylbenzamide], for which the EC50 was determined as 11 nM and the “activity (%) at 10 μM” value was determined as 105%.

As to `CCCc1ccc(Oc2nccc3c2C(=O)N(Cc2ccc(C(N)=O)c(F)c2)C3)c(F)c1` [Example 452, 2-fluoro-4-((4-(2-fluoro-4-propylphenoxy)-3-oxo-1,3-dihydro-2H-pyrrolo[3,4-c]pyridin-2-yl)methyl)benzamide], the EC50 was 45 nM and the “activity (%) at 10 μM” value was 102%.

Turning to `CCc1ccc(Oc2nccc3c2C(=O)N(Cc2ccc(C(=O)NC)nc2)C3)c(F)c1` [Example 453, 5-((4-(4-ethyl-2-fluorophenoxy)-3-oxo-1,3-dihydro-2H-pyrrolo[3,4-c]pyridin-2-yl)methyl)-N-methylpyridine-2-carboxamide], the EC50 is 56 nM and the “activity (%) at 10 μM” value stood at 97%.

As for `CNC(=O)c1ccc(CN2Cc3ccnc(Oc4ccc(C5CC5)cc4F)c3C2=O)cn1` [Example 454, 5-((4-(4-cyclopropyl-2-fluorophenoxy)-3-oxo-1,3-dihydro-2H-pyrrolo[3,4-c]pyridin-2-yl)methyl)-N-methylpyridine-2-carboxamide], the EC50 is 30 nM and the “activity (%) at 10 μM” value was found to be 86%.

As to `CCCc1ccc(Oc2nccc3c2C(=O)N(Cc2ccc(C(=O)NC)nc2)C3)c(F)c1` [Example 455, 5-((4-(2-fluoro-4-propylphenoxy)-3-oxo-1,3-dihydro-2H-pyrrolo[3,4-c]pyridin-2-yl)methyl)-N-methylpyridine-2-carboxamide], the EC50 amounted to 60 nM and the “activity (%) at 10 μM” value is reported as 86%.

Take `CNC(=O)c1ccc(CN2Cc3ccnc(Oc4ccc(C(F)(F)F)cc4F)c3C2=O)cn1` [Example 456, 5-((4-(2-fluoro-4-(trifluoromethyl)phenoxy)-3-oxo-1,3-dihydro-2H-pyrrolo[3,4-c]pyridin-2-yl)methyl)-N-methylpyridine-2-carboxamide]: the EC50 was 46 nM and the “activity (%) at 10 μM” value turned out to be 91%.

Consider `CNC(=O)c1ccc(CN2Cc3ccnc(Oc4ccc(CC(F)(F)F)cc4F)c3C2=O)cc1` [Example 457, 4-((4-(2-fluoro-4-(2,2,2-trifluoroethyl)phenoxy)-3-oxo-1,3-dihydro-2H-pyrrolo[3,4-c]pyridin-2-yl)methyl)-N-methylbenzamide], for which the EC50 stood at 8.6 nM and the “activity (%) at 10 μM” value is reported as 91%.

With `NC(=O)c1ccc(CN2Cc3ccnc(Oc4ccc(CC(F)(F)F)cc4F)c3C2=O)cc1` [Example 458, 4-((4-(2-fluoro-4-(2,2,2-trifluoroethyl)phenoxy)-3-oxo-1,3-dihydro-2H-pyrrolo[3,4-c]pyridin-2-yl)methyl)benzamide], the EC50 is 12 nM and the “activity (%) at 10 μM” value was determined as 93%.

For the compound `NC(=O)c1ccc(CN2Cc3ccnc(Oc4ccc(CC(F)(F)F)cc4F)c3C2=O)cc1F` [Example 459, 2-fluoro-4-((4-(2-fluoro-4-(2,2,2-trifluoroethyl)phenoxy)-3-oxo-1,3-dihydro-2H-pyrrolo[3,4-c]pyridin-2-yl)methyl)benzamide], the EC50 stood at 32 nM and the “activity (%) at 10 μM” value came out at 93%.

For the compound `NC(=O)c1ccc(CN2Cc3cccc(Oc4ccc(C(F)(F)F)cc4F)c3C2=O)cc1` [Example 460, 4-((7-(2-fluoro-4-(trifluoromethyl)phenoxy)-1-oxo-1,3-dihydro-2H-isoindol-2-yl)methyl)benzamide], the EC50 turned out to be 17 nM and the “activity (%) at 10 μM” value came out at 96%.

With `NC(=O)c1ccc(CN2Cc3cccc(Oc4ccc(C(F)(F)F)cc4F)c3C2=O)cc1F` [Example 461, 2-fluoro-4-((7-(2-fluoro-4-(trifluoromethyl)phenoxy)-1-oxo-1,3-dihydro-2H-isoindol-2-yl)methyl)benzamide], the EC50 is 50 nM and the “activity (%) at 10 μM” value was 95%.
